Where two headings read alike, the source gives them in different places.

In this assay the test system is HIV-1 (NL4-3 strain). Description: Assay for inhibition of HIV replication (VIKING) in infected MT4-GFP cells. It is filed as cell-based. The settings on record: infected cells at 48 h / 24 h. The method, then: MT4-GFP cells (250,000 cells/ml) were bulk-infected with HIV-1 (NL4-3 strain) at low multiplicity of infection (MOI) in RPMI+10% FBS for 24 hours. […] Test compounds were serial-diluted in DMSO on ECHO. The infected MT4-GFP cells were added to a 384-well poly-D-lysine coated black plate with clear bottom in which the diluted test compounds were placed. The cells were seeded at 8,000 cells per well and the final DMSO concentration was 0.4%. The infected cells (Green GFP cells) were quantified at both 24 and 48 hours post incubation using Acumen eX3. Viral reproductive ratio (R0) was determined using the number of infected cells at 48 hours divided by the number of infected cells at 24 hours. Percent viral growth inhibition was calculated by [1−(R−Rtripledrug)/(RDMSO−Rtripledrug)]*100.

[1] abbreviates: Human immunodeficiency virus 1, NL43, MT4-GFP cells infected with HIV-1 NL4-3, 100% NHS (normal human serum), read-out: VIKING IP50 (nM) with 100% NHS.
Where [2] appears, read: MT4-GFP cells infected with HIV-1 NL4-3, 0% NHS (normal human serum), read-out: VIKING IP50 (nM) with 0% NHS.
[3] abbreviates: MT4-GFP cells infected with HIV-1 NL4-3, 100% NHS (normal human serum), read-out: VIKING IP50 (nM) with 100% NHS.
[4] abbreviates: Human immunodeficiency virus 1, NL43, MT4-GFP cells infected with HIV-1 NL4-3, 0% NHS (normal human serum), read-out: VIKING IP50 (nM) with 0% NHS.

For the compound `CC(=O)N1CCC2(CN(C)C(=O)c3c(O)c(=O)c(C(=O)NCc4ccc(F)cc4F)cn32)C1` (single isomer, unassigned) [Compound 45], the IC50 reads like this: under setting [1], 297 nM; under setting [2], 69 nM.

For `CC(=O)N1CCC2(CN(C)C(=O)c3c(O)c(=O)c(C(=O)NCc4ccc(F)cc4F)cn32)C1` (single isomer, unassigned) [Compound 46], the IC50 under setting [2] was 19 nM and the IC50 under setting [3] came to 259 nM.

With `CC(C)OC(=O)OCOP(=O)(CCN1C[C@]2(CCOC2)n2cc(C(=O)NCc3ccc(F)cc3F)c(=O)c(O)c2C1=O)OCOC(=O)OC(C)C` (single isomer, unassigned) [Compound 58], the IC50 turned out to be 7 nM under setting [4] and 530 nM under setting [1].

With `CCN1C(=O)c2c(O)c(=O)c(C(=O)NCc3ccc(F)cc3F)cn2C2(CCOC2)C1OC` (single isomer, unassigned) [Compound 35], the IC50 by setting is: under setting [2], 1 nM; under setting [3], 88 nM.

Regarding `CCOCCN1CC2(CCOC2)n2cc(C(=O)NCc3ccc(F)cc3F)c(=O)c(O)c2C1=O` (stereo not drawn) [Compound 22], the IC50 is 2 nM under setting [4] and 40 nM under setting [1].

With `COCCN1CC2(CCOCC2)n2cc(C(=O)NCc3ccc(F)cc3F)c(=O)c(O)c2C1=O` [Compound 6], the IC50 under setting [4] is 6 nM and the IC50 under setting [1] was 646 nM.

In the case of `COCCN1CC2(CCOC2)n2cc(C(=O)NCc3ccc(F)c(Cl)c3)c(=O)c(O)c2C1=O` (stereo not drawn) [Compound 28], the IC50 reads like this: under setting [2], 2 nM; under setting [3], 2770 nM.

Take `CCOCCN1CC2(CCOC2)n2cc(C(=O)NCc3ccc(F)cc3F)c(=O)c(O)c2C1=O` (stereo not drawn) [Compound 23]: the IC50 amounted to 1 nM under setting [2] and 27 nM under setting [3].

As to `CCN1C(=O)c2c(O)c(=O)c(C(=O)NCc3ccc(F)cc3F)cn2C2(CCOC2)C1OC` (single isomer, unassigned) [Compound 36], the IC50 turned out to be 3 nM under setting [2] and 114 nM under setting [3].

As for `COCCN1CC2(CCOC2)n2cc(-c3nnc(Cc4ccc(F)cc4F)s3)c(=O)c(O)c2C1=O` (stereo not drawn) [Compound 39], the IC50 was found to be 2 nM under setting [4] and 291 nM under setting [3].

Take `COCN1CC2(CCOC2)n2cc(C(=O)NCc3ccc(F)cc3F)c(=O)c(O)c2C1=O` (stereo not drawn) [Compound 19]: the IC50 under setting [2] is 2 nM and the IC50 under setting [3] came to 3420 nM.

With `CN1CC2(CCN(S(C)(=O)=O)C2)n2cc(C(=O)NCc3ccc(F)cc3F)c(=O)c(O)c2C1=O` (single isomer, unassigned) [Compound 47], the IC50 runs as follows: under setting [4], 6 nM; under setting [1], 78 nM.

For the compound `CCN1CC2(COC2)n2cc(C(=O)NCc3ccc(F)cc3F)c(=O)c(O)c2C1=O` [Compound 5], the IC50 is, setting by setting: under setting [4], 4 nM; under setting [1], over 8400 nM.

Regarding `COCCCN1CC2(CCOC2)n2cc(C(=O)NCc3ccc(F)cc3F)c(=O)c(O)c2C1=O` (single isomer, unassigned) [Compound 12], the IC50 is, setting by setting: under setting [1], 47 nM; under setting [2], 5 nM.

For `COCCN1CC2(CCOC2)n2cc(C(=O)NCc3ccc(F)c(Cl)c3)c(=O)c(O)c2C1=O` (stereo not drawn) [Compound 27], the IC50 under setting [4] came out at 3 nM and the IC50 under setting [1] was found to be 3660 nM.

Turning to `O=C(NCc1ccc(F)cc1F)c1cn2c(c(O)c1=O)C(=O)N(CCP(=O)(O)O)CC21CCOC1` (stereo not drawn) [Compound 32], the IC50 came out at 293 nM under setting [4] and 873 nM under setting [1].

As to `CN1CC2(CCOC2)n2cc(C(=O)NCc3ccc(F)cc3F)c(=O)c(O)c2C1=O` (stereo not drawn) [Compound 14], the IC50 amounted to 3 nM under setting [4] and 209 nM under setting [1].

As for `CN(C)N1CC2(COC2)n2cc(C(=O)NCc3ccc(F)cc3F)c(=O)c(O)c2C1=O` [Compound 1], the IC50 reads like this: under setting [4], 4 nM; under setting [1], 1280 nM.

In the case of `CN1CC2(CCCOC2)n2cc(C(=O)NCc3ccc(F)cc3F)c(=O)c(O)c2C1=O` (stereo not drawn) [Compound 11], the IC50 under setting [2] was found to be 3 nM and the IC50 under setting [3] is 442 nM.

Turning to `CN1CC2(CCCOC2)n2cc(C(=O)NCc3ccc(F)cc3F)c(=O)c(O)c2C1=O` (stereo not drawn) [Compound 10], the IC50 under setting [4] is 3 nM and the IC50 under setting [3] turned out to be 75 nM.

With `COCCN1CC2(CCOC2)n2cc(C(=O)NCc3ccc(F)cc3F)c(=O)c(O)c2C1=O` (stereo not drawn) [Compound 20], the IC50 is, setting by setting: under setting [4], 2 nM; under setting [3], 337 nM.

Consider `COCCN1CC2(CCOC2)n2cc(C(=O)NCc3cccc(Cl)c3F)c(=O)c(O)c2C1=O` (stereo not drawn) [Compound 30], for which the IC50 runs as follows: under setting [2], 1 nM; under setting [3], 417 nM.

Regarding `CCN1C(=O)c2c(O)c(=O)c(C(=O)NCc3ccc(F)cc3F)cn2C2(COC2)C1OC` (single isomer, unassigned) [Compound 33], the IC50 is 3 nM under setting [4] and 210 nM under setting [3].

Consider `CN1CC2(CCNC2)n2cc(C(=O)NCc3ccc(F)cc3F)c(=O)c(O)c2C1=O` (single isomer, unassigned) [Compound 51], for which the IC50 by setting is: under setting [2], 3 nM; under setting [3], 68 nM.

As to `CN1CC2(COC2)n2cc(C(=O)NCc3ccc(F)cc3F)c(=O)c(O)c2C1=O` [Compound 4], the IC50 reads like this: under setting [4], 2 nM; under setting [1], 334 nM.

`COCCN1CC2(CCCOC2)n2cc(C(=O)NCc3ccc(F)cc3F)c(=O)c(O)c2C1=O` (single isomer, unassigned) [Compound 8]: the IC50 by setting is: under setting [4], 2 nM; under setting [3], 260 nM.

Take `O=C(NCc1ccc(F)cc1F)c1cn2c(c(O)c1=O)C(=O)N(CCO)CC21CCOC1` (stereo not drawn) [Compound 24]: the IC50 is, setting by setting: under setting [4], 35 nM; under setting [1], over 8000 nM.

Regarding `CN1CCC2(C1)CN(C)C(=O)c1c(O)c(=O)c(C(=O)NCc3ccc(F)cc3F)cn12` (single isomer, unassigned) [Compound 50], the IC50 stood at 1 nM under setting [2] and 74 nM under setting [3].

For the compound `COCCN1CC2(COC2)n2cc(C(=O)NCc3ccc(F)cc3F)c(=O)c(O)c2C1=O` [Compound 3], the IC50 by setting is: under setting [4], 3 nM; under setting [1], 292 nM.

As to `COC1N(N(C)C)C(=O)c2c(O)c(=O)c(C(=O)NCc3ccc(F)cc3F)cn2C12COC2` (stereo not drawn) [Compound 38], the IC50 runs as follows: under setting [4], 7 nM; under setting [1], 235 nM.

The record behind these values is US10221186B2, “Spirocyclic heterocyclic compounds useful as HIV integrase inhibitors” (priority 2014, dated 2019).
